Reference: ChEMBL document CHEMBL4507279, “Data for DCP probe BI-9627” (2021)

Columns and labels:
[1] = target: Ephrin type-B receptor 1 (Homo sapiens) (UniProt P54762); settings: Compound concentration 1000.0 nM
[2] = target: Calcium/calmodulin-dependent protein kinase type 1G (Homo sapiens) (UniProt Q96NX5); settings: Compound concentration 1000.0 nM
[3] = target: T1, Alpha-1D adrenergic receptor (Homo sapiens) (UniProt P25100); settings: Compound concentration 10.0 uM
T1 sequence (whole entry): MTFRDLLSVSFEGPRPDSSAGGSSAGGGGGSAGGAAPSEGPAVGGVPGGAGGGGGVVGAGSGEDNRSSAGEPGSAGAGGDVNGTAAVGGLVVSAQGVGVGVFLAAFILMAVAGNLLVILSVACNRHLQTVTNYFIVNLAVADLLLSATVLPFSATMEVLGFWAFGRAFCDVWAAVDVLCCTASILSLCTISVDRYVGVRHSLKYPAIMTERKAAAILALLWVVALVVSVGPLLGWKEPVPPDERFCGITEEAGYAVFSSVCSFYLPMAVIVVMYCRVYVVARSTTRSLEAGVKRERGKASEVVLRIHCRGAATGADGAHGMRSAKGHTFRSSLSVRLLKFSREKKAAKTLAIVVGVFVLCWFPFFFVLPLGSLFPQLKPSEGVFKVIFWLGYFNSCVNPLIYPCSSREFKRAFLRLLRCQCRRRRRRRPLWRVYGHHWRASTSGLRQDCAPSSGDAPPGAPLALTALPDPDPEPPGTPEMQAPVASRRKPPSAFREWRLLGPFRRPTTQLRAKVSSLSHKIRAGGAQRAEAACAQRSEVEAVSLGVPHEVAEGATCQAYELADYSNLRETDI

[4] = target: Tyrosine-protein kinase receptor Tie-1 (Homo sapiens) (UniProt P35590); settings: Compound concentration 1000.0 nM
[5] = target: Glycogen synthase kinase-3 alpha (Homo sapiens) (UniProt P49840); settings: Compound concentration 1000.0 nM
[6] = target: Myosin light chain kinase (Homo sapiens) (UniProt Q32MK0); settings: Compound concentration 1000.0 nM
[7] = target: Ephrin type-B receptor 6 (Homo sapiens) (UniProt O15197); settings: Compound concentration 1000.0 nM
[8] = target: Ephrin type-A receptor 4 (Homo sapiens) (UniProt P54764); settings: Compound concentration 1000.0 nM
[9] = target: Rhodopsin kinase GRK1 (Homo sapiens) (UniProt Q15835); settings: Compound concentration 1000.0 nM
[10] = target: Ephrin type-A receptor 1 (Homo sapiens) (UniProt P21709); settings: Compound concentration 1000.0 nM
[11] = target: Ribosomal protein S6 kinase alpha-2 (Homo sapiens) (UniProt Q15349); settings: Compound concentration 1000.0 nM
[12] = target: Cyclin-dependent kinase 4 (Homo sapiens) (UniProt P11802); settings: Compound concentration 1000.0 nM
[13] = target: Receptor tyrosine-protein kinase erbB-4 (Homo sapiens) (UniProt Q15303); settings: Compound concentration 1000.0 nM
[14] = target: Ephrin type-A receptor 2 (Homo sapiens) (UniProt P29317); settings: Compound concentration 1000.0 nM
[15] = target: Ribosomal protein S6 kinase alpha-5 (Homo sapiens) (UniProt O75582); settings: Compound concentration 1000.0 nM
[16] = target: Serine/threonine-protein kinase Nek7 (Homo sapiens) (UniProt Q8TDX7); settings: Compound concentration 1000.0 nM
[17] = target: NUAK family SNF1-like kinase 2 (Homo sapiens) (UniProt Q9H093); settings: Compound concentration 1000.0 nM
[18] = target: Serine/threonine-protein kinase 25 (Homo sapiens) (UniProt O00506); settings: Compound concentration 1000.0 nM
[19] = target: TGF-beta receptor type-1 (Homo sapiens) (UniProt P36897); settings: Compound concentration 1000.0 nM
[20] = tested on: Mast/stem cell growth factor receptor Kit (Homo sapiens), P10721 [A829P]; settings: Compound concentration 1000.0 nM
[21] = target: Wee1-like protein kinase 2 (Homo sapiens) (UniProt P0C1S8); settings: Compound concentration 1000.0 nM
[22] = target: Activin receptor type-1 (Homo sapiens) (UniProt Q04771); settings: Compound concentration 1000.0 nM
[23] = target: Ribosomal protein S6 kinase alpha-5 (Homo sapiens) (UniProt O75582); settings: Compound concentration 1000.0 nM; remark: listed apart in the source
[24] = target: MAP kinase-activated protein kinase 5 (Homo sapiens) (UniProt Q8IW41); settings: Compound concentration 1000.0 nM
[25] = tested on: Hepatocyte growth factor receptor (Homo sapiens), P08581 [Y1235D]; settings: Compound concentration 1000.0 nM
[26] = target: Ribosomal protein S6 kinase alpha-2 (Homo sapiens) (UniProt Q15349); settings: Compound concentration 1000.0 nM; remark: listed apart in the source
[27] = target: Cyclin-dependent kinase 13 (Homo sapiens) (UniProt Q14004); settings: Compound concentration 1000.0 nM
[28] = target: Phosphatidylinositol 4,5-bisphosphate 3-kinase catalytic subunit beta isoform (Homo sapiens) (UniProt P42338); settings: Compound concentration 1000.0 nM
[29] = target: Peripheral plasma membrane protein CASK (Homo sapiens) (UniProt O14936); settings: Compound concentration 1000.0 nM
[30] = target: NT-3 growth factor receptor (Homo sapiens) (UniProt Q16288); settings: Compound concentration 1000.0 nM
[31] = target: Dual specificity protein kinase CLK3 (Homo sapiens) (UniProt P49761); settings: Compound concentration 1000.0 nM
[32] = target: Cyclin-dependent kinase-like 5 (Homo sapiens) (UniProt O76039); settings: Compound concentration 1000.0 nM
[33] = target: Serine/threonine-protein kinase Nek3 (Homo sapiens) (UniProt P51956); settings: Compound concentration 1000.0 nM
[34] = target: Serine/threonine-protein kinase 17B (Homo sapiens) (UniProt O94768); settings: Compound concentration 1000.0 nM
[35] = target: Delta-type opioid receptor (Homo sapiens) (UniProt P41143); settings: Compound concentration 10.0 uM
[36] = target: Tyrosine-protein kinase JAK1 (Homo sapiens) (UniProt P23458); settings: Compound concentration 1000.0 nM
[37] = target: Cyclin-dependent kinase 3 (Homo sapiens) (UniProt Q00526); settings: Compound concentration 1000.0 nM
[38] = tested on: Mast/stem cell growth factor receptor Kit (Homo sapiens), P10721 [V559D,T670I]; settings: Compound concentration 1000.0 nM

Chain of Ribosomal protein S6 kinase alpha-2 (Homo sapiens) (Q15349 whole entry): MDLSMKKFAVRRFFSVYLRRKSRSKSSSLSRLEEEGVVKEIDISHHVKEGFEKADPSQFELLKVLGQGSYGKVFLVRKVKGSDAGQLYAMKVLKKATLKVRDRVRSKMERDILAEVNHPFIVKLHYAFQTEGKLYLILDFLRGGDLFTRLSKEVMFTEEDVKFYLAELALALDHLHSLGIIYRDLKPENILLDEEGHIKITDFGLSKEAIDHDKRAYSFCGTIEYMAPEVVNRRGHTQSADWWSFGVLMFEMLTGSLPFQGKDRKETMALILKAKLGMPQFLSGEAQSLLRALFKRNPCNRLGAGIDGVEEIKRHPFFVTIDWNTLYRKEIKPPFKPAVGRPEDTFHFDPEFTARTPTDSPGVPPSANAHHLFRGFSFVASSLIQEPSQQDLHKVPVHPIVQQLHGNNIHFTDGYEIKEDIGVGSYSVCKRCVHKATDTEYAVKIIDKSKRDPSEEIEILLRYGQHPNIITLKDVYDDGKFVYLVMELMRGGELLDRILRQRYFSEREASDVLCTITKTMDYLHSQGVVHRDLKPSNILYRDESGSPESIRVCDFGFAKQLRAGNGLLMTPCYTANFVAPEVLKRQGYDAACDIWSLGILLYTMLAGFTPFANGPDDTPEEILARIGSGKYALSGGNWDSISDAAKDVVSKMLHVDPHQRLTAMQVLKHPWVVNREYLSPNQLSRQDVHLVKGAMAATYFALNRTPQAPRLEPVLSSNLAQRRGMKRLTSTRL
Chain of Ribosomal protein S6 kinase alpha-5 (Homo sapiens) (O75582 whole entry, looked up): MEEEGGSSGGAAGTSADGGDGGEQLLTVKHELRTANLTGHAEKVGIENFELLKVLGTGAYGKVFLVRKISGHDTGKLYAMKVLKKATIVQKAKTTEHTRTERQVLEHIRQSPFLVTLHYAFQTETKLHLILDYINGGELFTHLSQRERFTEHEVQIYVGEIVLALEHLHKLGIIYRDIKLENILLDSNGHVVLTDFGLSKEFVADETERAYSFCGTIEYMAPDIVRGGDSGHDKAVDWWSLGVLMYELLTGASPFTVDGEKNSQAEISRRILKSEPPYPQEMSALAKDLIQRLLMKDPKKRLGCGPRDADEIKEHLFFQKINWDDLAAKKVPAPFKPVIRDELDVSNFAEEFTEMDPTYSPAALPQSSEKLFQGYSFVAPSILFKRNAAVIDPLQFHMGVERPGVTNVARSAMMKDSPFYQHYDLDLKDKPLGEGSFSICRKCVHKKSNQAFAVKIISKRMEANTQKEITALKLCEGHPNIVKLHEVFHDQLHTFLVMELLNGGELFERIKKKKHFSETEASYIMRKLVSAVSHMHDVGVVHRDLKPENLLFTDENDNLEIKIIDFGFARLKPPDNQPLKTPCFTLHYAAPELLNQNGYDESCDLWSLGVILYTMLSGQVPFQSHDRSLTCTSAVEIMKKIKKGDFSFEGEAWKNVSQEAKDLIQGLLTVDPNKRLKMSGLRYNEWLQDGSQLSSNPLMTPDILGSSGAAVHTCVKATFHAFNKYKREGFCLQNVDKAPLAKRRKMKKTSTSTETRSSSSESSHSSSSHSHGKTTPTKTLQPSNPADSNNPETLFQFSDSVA
Chain of Tyrosine-protein kinase receptor Tie-1 (Homo sapiens) (P35590 whole entry): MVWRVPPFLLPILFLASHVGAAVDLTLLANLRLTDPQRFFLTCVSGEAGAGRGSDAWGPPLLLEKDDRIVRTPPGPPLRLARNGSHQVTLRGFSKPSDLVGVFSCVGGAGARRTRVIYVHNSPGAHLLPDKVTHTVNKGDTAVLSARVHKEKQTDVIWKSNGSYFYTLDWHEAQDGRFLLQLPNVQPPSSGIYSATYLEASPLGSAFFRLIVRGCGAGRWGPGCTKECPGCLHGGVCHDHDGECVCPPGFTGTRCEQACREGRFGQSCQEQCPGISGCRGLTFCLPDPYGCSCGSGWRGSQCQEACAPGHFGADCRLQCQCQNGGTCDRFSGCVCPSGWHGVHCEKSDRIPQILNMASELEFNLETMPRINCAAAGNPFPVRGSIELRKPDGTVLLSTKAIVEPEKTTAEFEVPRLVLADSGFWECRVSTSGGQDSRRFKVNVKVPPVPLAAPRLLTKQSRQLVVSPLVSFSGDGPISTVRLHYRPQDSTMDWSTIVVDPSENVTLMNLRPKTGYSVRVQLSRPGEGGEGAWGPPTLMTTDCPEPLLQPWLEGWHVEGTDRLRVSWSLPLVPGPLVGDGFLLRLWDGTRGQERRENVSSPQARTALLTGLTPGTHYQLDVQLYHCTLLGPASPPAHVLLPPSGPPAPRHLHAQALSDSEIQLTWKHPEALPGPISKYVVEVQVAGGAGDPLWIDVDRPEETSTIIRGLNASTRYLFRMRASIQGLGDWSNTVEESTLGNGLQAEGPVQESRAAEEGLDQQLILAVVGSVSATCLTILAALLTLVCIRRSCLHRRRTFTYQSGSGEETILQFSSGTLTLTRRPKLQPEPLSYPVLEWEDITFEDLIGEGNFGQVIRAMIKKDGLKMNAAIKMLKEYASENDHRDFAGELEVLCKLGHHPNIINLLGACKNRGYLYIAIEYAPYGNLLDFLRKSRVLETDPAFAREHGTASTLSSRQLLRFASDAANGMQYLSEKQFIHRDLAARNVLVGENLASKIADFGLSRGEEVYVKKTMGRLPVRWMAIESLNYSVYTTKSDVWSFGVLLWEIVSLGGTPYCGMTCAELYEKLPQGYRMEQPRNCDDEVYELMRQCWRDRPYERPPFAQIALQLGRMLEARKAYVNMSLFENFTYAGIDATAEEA
Chain of Serine/threonine-protein kinase 25 (Homo sapiens) (O00506 whole entry, looked up): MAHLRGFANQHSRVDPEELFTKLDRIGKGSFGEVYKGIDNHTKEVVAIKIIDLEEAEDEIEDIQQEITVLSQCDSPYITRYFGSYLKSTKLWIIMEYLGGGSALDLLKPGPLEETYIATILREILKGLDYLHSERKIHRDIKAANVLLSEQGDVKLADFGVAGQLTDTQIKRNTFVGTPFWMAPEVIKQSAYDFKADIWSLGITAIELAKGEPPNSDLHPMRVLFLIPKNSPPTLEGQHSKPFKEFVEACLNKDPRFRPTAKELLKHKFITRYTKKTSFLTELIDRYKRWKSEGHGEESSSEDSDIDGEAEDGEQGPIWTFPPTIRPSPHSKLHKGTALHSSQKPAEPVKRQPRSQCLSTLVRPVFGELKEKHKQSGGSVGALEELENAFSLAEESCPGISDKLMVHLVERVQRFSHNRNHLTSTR
Chain of Myosin light chain kinase (Homo sapiens) (Q32MK0 whole entry): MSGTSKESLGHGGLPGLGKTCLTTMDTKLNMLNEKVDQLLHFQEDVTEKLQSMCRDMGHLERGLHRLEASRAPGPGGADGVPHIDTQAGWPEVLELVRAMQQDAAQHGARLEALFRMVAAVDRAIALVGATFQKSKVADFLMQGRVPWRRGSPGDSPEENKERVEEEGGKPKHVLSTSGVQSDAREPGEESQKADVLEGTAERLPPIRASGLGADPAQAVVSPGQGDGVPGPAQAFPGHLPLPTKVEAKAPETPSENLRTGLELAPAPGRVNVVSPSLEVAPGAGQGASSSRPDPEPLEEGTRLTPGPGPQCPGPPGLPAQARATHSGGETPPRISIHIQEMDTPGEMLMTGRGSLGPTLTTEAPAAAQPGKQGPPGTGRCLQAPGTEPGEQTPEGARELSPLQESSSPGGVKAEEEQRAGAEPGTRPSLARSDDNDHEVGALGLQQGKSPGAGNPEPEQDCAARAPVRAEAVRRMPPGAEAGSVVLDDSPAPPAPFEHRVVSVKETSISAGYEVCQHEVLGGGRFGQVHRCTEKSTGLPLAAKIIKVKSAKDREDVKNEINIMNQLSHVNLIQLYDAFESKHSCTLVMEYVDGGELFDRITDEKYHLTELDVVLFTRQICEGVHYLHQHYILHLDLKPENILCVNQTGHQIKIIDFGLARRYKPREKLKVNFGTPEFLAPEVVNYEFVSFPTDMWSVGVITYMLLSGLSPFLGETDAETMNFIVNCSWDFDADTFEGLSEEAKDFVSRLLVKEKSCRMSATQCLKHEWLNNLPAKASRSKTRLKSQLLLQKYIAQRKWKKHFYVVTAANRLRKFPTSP
Chain of Calcium/calmodulin-dependent protein kinase type 1G (Homo sapiens) (Q96NX5 whole entry): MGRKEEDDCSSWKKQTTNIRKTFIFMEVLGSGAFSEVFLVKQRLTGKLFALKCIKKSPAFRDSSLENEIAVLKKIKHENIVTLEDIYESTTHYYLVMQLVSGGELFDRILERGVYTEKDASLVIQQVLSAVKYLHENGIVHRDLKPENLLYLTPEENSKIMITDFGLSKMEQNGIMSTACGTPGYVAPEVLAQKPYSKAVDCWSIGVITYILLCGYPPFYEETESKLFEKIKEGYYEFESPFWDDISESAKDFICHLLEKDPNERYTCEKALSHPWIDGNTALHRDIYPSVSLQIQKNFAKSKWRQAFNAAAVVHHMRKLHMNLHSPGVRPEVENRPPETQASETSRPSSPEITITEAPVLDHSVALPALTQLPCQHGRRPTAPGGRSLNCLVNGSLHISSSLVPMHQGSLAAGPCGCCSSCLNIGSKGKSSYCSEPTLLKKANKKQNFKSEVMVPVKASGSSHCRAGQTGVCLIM
Chain of Serine/threonine-protein kinase Nek3 (Homo sapiens) (P51956 whole entry): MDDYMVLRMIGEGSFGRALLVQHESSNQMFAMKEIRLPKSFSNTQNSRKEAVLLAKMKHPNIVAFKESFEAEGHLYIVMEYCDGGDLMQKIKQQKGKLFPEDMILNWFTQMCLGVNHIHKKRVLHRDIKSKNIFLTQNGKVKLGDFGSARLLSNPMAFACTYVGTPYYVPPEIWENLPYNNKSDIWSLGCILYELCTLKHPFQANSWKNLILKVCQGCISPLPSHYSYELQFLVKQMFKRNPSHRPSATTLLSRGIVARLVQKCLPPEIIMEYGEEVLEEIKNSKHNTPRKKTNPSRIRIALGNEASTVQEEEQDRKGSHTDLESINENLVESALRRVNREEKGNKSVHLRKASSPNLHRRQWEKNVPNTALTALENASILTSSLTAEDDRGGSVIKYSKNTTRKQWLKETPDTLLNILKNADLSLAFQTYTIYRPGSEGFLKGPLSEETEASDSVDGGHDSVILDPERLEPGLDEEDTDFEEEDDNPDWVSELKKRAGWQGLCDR

CC(=O)N1CCC(c2ccc(C(=O)NC3=NCCN3)cc2C(F)(F)F)CC1 [BI 0054]
inactive: residual activity [1] 100% | residual activity [2] 100% | inhibition [3] 50% | residual activity [4] 82% | residual activity [5] 78% | residual activity [6] 100% | residual activity [7] 100% | residual activity [8] 100% | residual activity [9] 95% | residual activity [10] 88% | residual activity [11] 100% | residual activity [12] 100% | residual activity [13] 100% | residual activity [14] 94% | residual activity [15] 100% | residual activity [16] 100% | residual activity [17] 90% | residual activity [18] 100% | residual activity [19] 100% | residual activity [20] 100% | residual activity [21] 100% | residual activity [22] 100% | residual activity [23] 70% | residual activity [24] 88% | residual activity [25] 100% | residual activity [26] 83% | residual activity [27] 100% | residual activity [28] 100% | residual activity [29] 85% | residual activity [30] 100% | residual activity [31] 100% | residual activity [32] 79% | residual activity [33] 63% | residual activity [34] 100% | inhibition [35] -0.82% | residual activity [36] 100% | residual activity [37] 100% | residual activity [38] 100%

CC(=O)N1CCC(c2ccc(C(=O)NC(=N)N)cc2C(F)(F)F)CC1 [BI 9627]
inactive: residual activity [1] 100% | residual activity [2] 100% | inhibition [3] 50% | residual activity [4] 100% | residual activity [5] 97% | residual activity [6] 100% | residual activity [7] 100% | residual activity [8] 100% | residual activity [9] 98% | residual activity [10] 100% | residual activity [11] 90% | residual activity [12] 100% | residual activity [13] 100% | residual activity [14] 100% | residual activity [15] 100% | residual activity [16] 100% | residual activity [17] 100% | residual activity [18] 100% | residual activity [19] 100% | residual activity [20] 100% | residual activity [21] 100% | residual activity [22] 100% | residual activity [23] 97% | residual activity [24] 100% | residual activity [25] 100% | residual activity [26] 97% | residual activity [27] 100% | residual activity [28] 100% | residual activity [29] 100% | residual activity [30] 100% | residual activity [31] 100% | residual activity [32] 82% | residual activity [33] 79% | residual activity [34] 100% | inhibition [35] -5.35% | residual activity [36] 100% | residual activity [37] 100% | residual activity [38] 100%
